SMILES strings stand for the structures. Some results are limits rather than exact numbers.

The values below come from patent US20210040118A1, “IMMUNOMODULATORS, COMPOSITIONS AND METHODS THEREOF” (BETTA PHARMACEUTICALS CO., LTD, priority 2018, published 2021).

The target of this assay is T1, PD-1/PD-L1 (Homo sapiens, UniProt Q9NZQ7).
T1 construct: Recombinant human PD-L1 protein (19-238) with a His-tag at the C-terminus; purchased AcroBiosystems PD1-H5229 (PD-L1); PD1-H5257 (PD-1)
T1 sequence (Q9NZQ7 19-238): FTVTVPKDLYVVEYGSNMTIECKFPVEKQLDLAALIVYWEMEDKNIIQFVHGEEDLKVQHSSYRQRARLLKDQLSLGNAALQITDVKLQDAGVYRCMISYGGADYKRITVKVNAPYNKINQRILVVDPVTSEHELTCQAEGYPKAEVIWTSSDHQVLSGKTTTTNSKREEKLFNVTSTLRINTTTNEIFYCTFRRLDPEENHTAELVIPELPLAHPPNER
Nature of the assay: PD-1/PD-L1 homogenous time-resolved fluorescence (HTRF) binding assay. Conditions: recombinant human PD-L1 (19-238) His-tag / human PD-1 (25-167) Fc tag, class symbols. The method in brief: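 HTRF binding of human PD-1 (25-167, Fc-tagged) at 3 nM and PD-L1 (19-238, His-tagged) at 10 nM, preincubated 40 min with inhibitor in PBS pH 7.4, 0.05% Tween-20, 0.1% BSA, 1% DMSO, 25°C. Eu anti-IgG (1 nM) and anti-His-APC (20 nM) added, 60 min; 665/620 nm ratio; IC50 from curve fit.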
(In general: Time-resolved FRET reads energy transfer from a long-lived donor to a nearby acceptor.)
As to `Cc1c(NC(=O)c2cnc(C(C)NCCO)cn2)cccc1-c1cccc(NC(=O)c2cnc(C(C)NCCO)cn2)c1C` (centres unmarked) [Example 181, N,N′-(2,2′-dimethyl-[1,1′-biphenyl]-3,3′-diyl)bis(5-(1-((2-hydroxyethyl)amino)ethyl)pyrazine-2-carboxamide)], the half-inhibitory concentration (IC50) was less than 25 nM.

As to `CC(=O)N1CCc2nc(C(=O)Nc3cccc(-c4cccc(NC(=O)c5ccc6c(n5)CCNC6)c4C)c3C)ccc2C1` [Example 182, 6-acetyl-N-(2,2′-dimethyl-3′-(5,6,7,8-tetrahydro-1,6-naphthyridine-2-carboxamido)-[1,1′-biphenyl]-3-yl)-5,6,7,8-tetrahydro-1,6-naphthyridine-2-carboxamide], the IC50 was less than 25 nM.

`CC(=O)N1CCc2c(nc(C(=O)Nc3cccc(-c4cccc(NC(=O)c5ccc6c(n5)CCNC6)c4C)c3C)n2C)C1` [Example 183, N-(3′-(5-acetyl-1-methyl-4,5,6,7-tetrahydro-1H-imidazo[4,5-c]pyridine-2-carboxamido)-2,2′-dimethyl-[1,1′-biphenyl]-3-yl)-5,6,7,8-tetrahydro-1,6-naphthyridine-2-carboxamide]: the concentration for half-maximal inhibition (IC50) was less than 25 nM.

Turning to `Cc1oc(=O)oc1COC(=O)N1CCc2nc(C(=O)Nc3cccc(-c4cccc(NC(=O)c5ccc6c(n5)CCN(C(=O)OCc5oc(=O)oc5C)C6)c4C)c3C)ccc2C1` [Example 184, bis((5-methyl-2-oxo-1,3-dioxol-4-yl)methyl) 2,2′-(((2,2′-dimethyl-[1,1′-biphenyl]-3,3′-diyl)bis(azanediyl))bis(carbonyl))bis(7,8-dihydro-1,6-naphthyridine-6(5H)-carboxylate)], the half-inhibitory concentration (IC50) was greater than 200 nM.

Regarding `Cc1c(NC(=O)c2ccc3c(n2)CCNC3)cccc1-c1cccc(NC(=O)c2ccc3c(n2)CCN(C)C3)c1C` [Example 185, N-(2,2′-dimethyl-3′-(5,6,7,8-tetrahydro-1,6-naphthyridine-2-carboxamido)-[1,1′-biphenyl]-3-yl)-6-methyl-5,6,7,8-tetrahydro-1,6-naphthyridine-2-carboxamide], the half-maximal inhibitory concentration (IC50) was less than 25 nM.

As for `Cc1c(NC(=O)c2ccc3c(n2)CCNC3)cccc1-c1cccc(NC(=O)c2ccc3c(n2)CCN(CCO)C3)c1C` [Example 186, N-(2,2′-dimethyl-3′-(5,6,7,8-tetrahydro-1,6-naphthyridine-2-carboxamido)-[1,1′-biphenyl]-3-yl)-6-(2-hydroxyethyl)-5,6,7,8-tetrahydro-1,6-naphthyridine-2-carboxamide], the IC50 is less than 25 nM.

Consider `Cc1c(NC(=O)c2ccc3c(n2)CCN(CC(F)F)C3)cccc1-c1cccc(NC(=O)c2ccc3c(n2)CCN(CC(F)F)C3)c1C` [Example 187, N,N′-(2,2′-dimethyl-[1,1′-biphenyl]-3,3′-diyl)bis(6-(2,2-difluoroethyl)-5,6,7,8-tetrahydro-1,6-naphthyridine-2-carboxamide)], for which the concentration for half-maximal inhibition (IC50) is 25 to 100 nM.

For `Cc1c(NC(=O)c2ncc3c(n2)CCNC3)cccc1-c1cccc(NC(=O)c2ncc3c(n2)CCNC3)c1C` [Example 188, N,N′-(2,2′-dimethyl-[1,1′-biphenyl]-3,3′-diyl)bis(5,6,7,8-tetrahydropyrido[4,3-d]pyrimidine-2-carboxamide)], the IC50 is less than 25 nM.

As usually defined, the IC50 is the midpoint of a concentration-inhibition curve.
